Measured values as given in patent US11236084B2, “Substituted azaindoline derivatives as NIK inhibitors” (Janssen Pharmaceutica NV, priority 2017, dated 2022).
Like-named read-outs stand apart in the source and are kept apart here.

Molecular target: recombinant human NF-kappaB-inducing kinase (NIK/MAP3K14) (Homo sapiens, UniProt Q99558)
Assay: Biological Assay B: inhibition of auto-phosphorylation of recombinant human NIK/MAP3K14 (AlphaScreen), performed at 2 locations
Assay type: biochemical
Conditions: averaged values
Protocol: Inhibition of Auto-Phosphorylation of Recombinant Human NF-kappaB-Inducing Kinase (NIK/MAP3K14) Activity (AlphaScreen®)
NIK/MAP3K14 auto-phosphorylation activity was measured using the AlphaScreen® (αscreen) format (Perkin Elmer). All compounds tested were dissolved in dimethyl sulfoxide (DMSO) and further dilutions were made in assay buffer. Final DMSO concentration was 1% (v/v) in assays. Assay buffer was 50 mM Tris pH 7.5 containing 1 mM EGTA (ethylene glycol tetraacetic acid), 1 mM DTT (dithiothreitol), 0.1 mM Na3VO4, 5 mM MgCl2, 0.01% Tween® 20. Assays were carried out in 384 well Alphaplates (Perkin Elmer). Incubations consisted of compound, 25 microM Adenosine-5′-triphosphate (ATP), and 0.2 nM NIK/MAP3K14. Incubations were initiated by addition of GST-tagged NIK/MAP3K14 enzyme, carried out for 1 h at 25° C. and terminated by addition of stop buffer containing anti-phospho-IKK Ser176/180 antibody. Protein A Acceptor and Glutathione-Donor beads were added before reading using an EnVision® Multilabel Plate Reader (Perkin Elmer). Signal obtained in the wells containing blank samples was subtracted from all other wells and IC50's were determined by fitting a sigmoidal curve to % inhibition of control versus Log10 compound concentration.
Assay B was performed at 2 different locations.
Data for the compounds of the invention in the above assays are provided in Table A (the values in Table are averaged values over all measurements on all batches of a compound; values as IC50 (nM)). (‘n.c.’ means not calculated: ‘Co.’ means compound)

[1] = location 2, AlphaScreen auto-phosphorylation, read-out: Assay B location 2 IC50
[2] = location 1, AlphaScreen auto-phosphorylation, read-out: Assay B location 1 IC50

recombinant human NF-kappaB-inducing kinase (NIK/MAP3K14), sequence (Q99558 whole entry): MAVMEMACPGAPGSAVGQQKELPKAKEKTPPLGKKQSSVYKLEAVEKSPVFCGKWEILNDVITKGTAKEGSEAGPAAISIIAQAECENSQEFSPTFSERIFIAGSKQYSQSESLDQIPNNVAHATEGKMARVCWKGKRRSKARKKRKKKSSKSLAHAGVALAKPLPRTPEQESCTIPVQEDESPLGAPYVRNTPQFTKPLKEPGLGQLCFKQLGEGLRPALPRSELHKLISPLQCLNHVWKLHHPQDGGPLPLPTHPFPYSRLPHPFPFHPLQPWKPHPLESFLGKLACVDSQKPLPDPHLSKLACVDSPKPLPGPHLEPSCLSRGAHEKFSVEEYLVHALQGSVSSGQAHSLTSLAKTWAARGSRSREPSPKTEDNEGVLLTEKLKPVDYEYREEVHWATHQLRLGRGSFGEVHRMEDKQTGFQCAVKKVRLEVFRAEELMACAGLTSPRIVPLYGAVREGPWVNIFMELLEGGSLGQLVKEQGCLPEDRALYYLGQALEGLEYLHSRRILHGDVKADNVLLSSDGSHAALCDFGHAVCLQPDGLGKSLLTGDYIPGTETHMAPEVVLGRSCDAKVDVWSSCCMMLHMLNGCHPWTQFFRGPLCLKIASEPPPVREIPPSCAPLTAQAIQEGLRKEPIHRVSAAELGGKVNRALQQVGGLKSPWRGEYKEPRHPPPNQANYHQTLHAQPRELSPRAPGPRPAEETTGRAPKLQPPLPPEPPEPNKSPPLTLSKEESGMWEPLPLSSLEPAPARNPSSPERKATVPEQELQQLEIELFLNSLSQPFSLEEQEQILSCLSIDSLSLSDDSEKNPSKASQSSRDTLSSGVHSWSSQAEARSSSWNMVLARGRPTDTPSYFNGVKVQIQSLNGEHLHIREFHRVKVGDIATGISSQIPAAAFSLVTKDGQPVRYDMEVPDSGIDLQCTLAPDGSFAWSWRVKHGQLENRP

SMILES	IC50 [1] [nM]	IC50 (location 1, NIK auto-phosphorylation, AlphaScreen, read-out: Assay B location 1 IC50) [nM]	IC50 [2] [nM]	IC50 (location 2, NIK auto-phosphorylation, AlphaScreen, read-out: Assay B location 2 IC50) [nM]
COc1cc(N2CCOCC2)ccc1Nc1nccc(-c2cnc3c(c2)C(C)(CO)CN3)n1 (stereo not drawn) [Compound 171]	12.3	–	–	–
COc1cc(C(=O)NC2CCOCC2)ccc1Nc1ncc(F)c(-c2cnc3c(c2)C(C)(CO)CN3)n1 (single isomer, unassigned) [Compound 352]	–	33.9	–	–
COc1ccc(Br)cc1Nc1nccc(-c2cnc3c(c2)C(C)(CO)CN3)n1 (stereo not drawn) [Compound 181]	2.2	–	–	–
CC1(CO)CNc2ncc(-c3ccnc(Nc4cc(F)c(N5CCOCC5)cc4Cl)n3)cc21 (stereo not drawn) [Compound 365]	11	–	13.8	–
CCN1CCN(c2cc(OC)c(Nc3nccc(-c4cnc5c(c4)C(C)(CO)CN5)n3)cc2F)CC1 (stereo not drawn) [Compound 275]	2.6	–	4	–
CCN1CCN(Cc2cc(OC)c(Nc3nccc(-c4cnc5c(c4)C(C)(CO)CN5)n3)cc2Cl)CC1 (stereo not drawn) [Compound 337]	–	–	–	1.6
COCCOc1cc(N2CCOCC2)c(Cl)cc1Nc1nccc(-c2cnc3c(c2)C(C)(CO)CN3)n1 (stereo not drawn) [Compound 367]	21.9	–	87.1	–
COc1ccc(C(C)C)cc1Nc1nccc(-c2cnc3c(c2)C(C)(CO)CN3)n1 (stereo not drawn) [Compound 209]	110	–	–	–
CN(C)CCOc1cc(N2CCOCC2)c(F)cc1Nc1nccc(-c2cnc3c(c2)C(C)(CO)CN3)n1 (single isomer, unassigned) [Compound 286]	3390	–	7240	–
CC1(CO)CNc2ncc(-c3ccnc(Nc4cc(C#N)c(N5CCOCC5)cc4Cl)n3)cc21 (stereo not drawn) [Compound 364]	6.9	–	10.2	–
Cc1cc(N2CCOCC2)c(C#N)cc1Nc1nccc(-c2cnc3c(c2)C(C)(CO)CN3)n1 (single isomer, unassigned) [Compound 262]	129	–	129	–
COc1cc(N2CC3(CCOCC3)C2)c(F)cc1Nc1nccc(-c2cnc3c(c2)C(C)(CO)CN3)n1 (single isomer, unassigned) [Compound 7S]	1.6	–	7.8	–
COc1cc(C2COCCN2C)ccc1Nc1nccc(-c2cnc3c(c2)C(C)(CO)CN3)n1 (stereo not drawn) [Compound 200]	132	–	–	–
COc1cc(-c2ccnn2C)ccc1Nc1nccc(-c2cnc3c(c2)C(C)(CO)CN3)n1 (stereo not drawn) [Compound 203]	30.9	–	–	–
COc1cccc(Nc2nccc(-c3cnc4c(c3)C(C)(CO)CN4)n2)c1Cl (stereo not drawn) [Compound 225]	10.2	–	13.2	–
COCCN1CCC(c2cc(OC)c(Nc3nccc(-c4cnc5c(c4)C(C)(CO)CN5)n3)cc2Cl)CC1 (stereo not drawn) [Compound 319]	1.2	–	4.2	–
COCCN(C)c1cc(OC)c(Nc2nccc(-c3cnc4c(c3)C(C)(CO)CN4)n2)cc1Cl (stereo not drawn) [Compound 5]	4.1	–	6.3	–
COc1cc(N2CC(O)C2)c(Cl)cc1Nc1nccc(-c2cnc3c(c2)C(C)(CO)CN3)n1 (stereo not drawn) [Compound 302]	1.7	–	–	–
COc1cc(N2CCC(C#N)CC2)c(Cl)cc1Nc1nccc(-c2cnc3c(c2)C(C)(CO)CN3)n1 (stereo not drawn) [Compound 245]	3.6	–	–	–
COc1cc(N2CCC(OC)CC2)c(Cl)cc1Nc1nccc(-c2cnc3c(c2)C(C)(CO)CN3)n1 (stereo not drawn) [Compound 327]	2.3	–	6.3	–

SMILES	IC50 [1] [nM]	IC50 (location 1, NIK auto-phosphorylation, AlphaScreen, read-out: Assay B location 1 IC50) [nM]	IC50 [2] [nM]	IC50 (location 2, NIK auto-phosphorylation, AlphaScreen, read-out: Assay B location 2 IC50) [nM]
Cc1cc(N2CCOCC2)c(Cl)cc1Nc1nccc(-c2cnc3c(c2)C(C)(CO)CN3)n1 (single isomer, unassigned) [Compound 258]	25.7	–	91.2	–
Cc1cc(N2CCOCC2)c(C#N)cc1Nc1nccc(-c2cnc3c(c2)C(C)(CO)CN3)n1 (stereo not drawn) [Compound 363]	10.7	–	17.8	–
Cc1ccccc1Nc1nccc(-c2cnc3c(c2)C(C)(CO)CN3)n1 (stereo not drawn) [Compound 179]	22.4	–	–	–
Cc1ccc(Cl)cc1Nc1nccc(-c2cnc3c(c2)C(C)(CO)CN3)n1 (stereo not drawn) [Compound 199]	4.5	–	–	–
COc1cc(N2CCC(O)C2)c(Cl)cc1Nc1nccc(-c2cnc3c(c2)C(C)(CO)CN3)n1 (stereo not drawn) [Compound 325]	3.6	–	–	–
COc1cc(CCN2CCOCC2)ccc1Nc1nccc(-c2cnc3c(c2)C(C)(CO)CN3)n1 (stereo not drawn) [Compound 194]	21.9	–	–	–
Cc1cc(N2CCOCC2)c(Cl)cc1Nc1nccc(-c2cnc3c(c2)C(C)(CO)CN3)n1 (stereo not drawn) [Compound 361]	3.7	–	7.8	–
COc1cc(N2CCC(OC)C2)c(Cl)cc1Nc1nccc(-c2cnc3c(c2)C(C)(CO)CN3)n1 (stereo not drawn) [Compound 285]	1.8	–	7.8	–
COc1cc(N2CCOCC2)c(Cl)cc1Nc1nccc(-c2cnc3c(c2)C(C)(CO)CN3)n1 (single isomer, unassigned) [Compound 6S]	2.4	–	4	–
CC(C)Oc1ccccc1Nc1nccc(-c2cnc3c(c2)C(C)(CO)CN3)n1 (stereo not drawn) [Compound 175]	33.9	–	–	–
COCCCN(C)c1cc(OC)c(Nc2nccc(-c3cnc4c(c3)C(C)(CO)CN4)n2)cc1Cl (stereo not drawn) [Compound 252]	7.4	–	–	–
CN(C)CCOc1cc(N2CCOCC2)c(F)cc1Nc1nccc(-c2cnc3c(c2)C(C)(CO)CN3)n1 (single isomer, unassigned) [Compound 297]	309	–	708	–
COc1cc(N2CC3(CCOCC3)C2)c(Cl)cc1Nc1nccc(-c2cnc3c(c2)C(C)(CO)CN3)n1 (stereo not drawn) [Compound 3]	2.2	–	10	–
COc1cc(N2CCN(C)CC2)c(Cl)cc1Nc1nccc(-c2cnc3c(c2)C(C)(CO)CN3)n1 (single isomer, unassigned) [Compound 303]	4.8	–	13.8	–
CCC1(CC#N)CNc2ncc(-c3ccnc(Nc4ccc(C(=O)NC5CCOCC5)cc4OC)n3)cc21 (stereo not drawn) [Compound 154]	19.1	–	–	–
CCC1(CCO)CNc2ncc(-c3ccnc(Nc4ccc(C(=O)N5CCC(OC)CC5)cc4OC)n3)cc21 (stereo not drawn) [Compound 159]	12.6	–	–	–
COc1ccc(N2CCN(C)CC2)cc1Nc1nccc(-c2cnc3c(c2)C(C)(CO)CN3)n1 (stereo not drawn) [Compound 238]	> 10000	–	~6610	–
[2H]C([2H])([2H])c1ccccc1Nc1nccc(-c2cnc3c(c2)C(C)(CO)CN3)n1 (stereo not drawn) [Compound 234]	38.9	–	61.7	–
Cc1cccc(Nc2nccc(-c3cnc4c(c3)C(C)(CO)CN4)n2)c1C (stereo not drawn) [Compound 212]	22.4	–	–	–
CCOC1CN(c2cc(OC)c(Nc3nccc(-c4cnc5c(c4)C(C)(CO)CN5)n3)cc2Cl)C1 (stereo not drawn) [Compound 357]	10	–	12	–

SMILES	IC50 [1] [nM]	IC50 (location 1, NIK auto-phosphorylation, AlphaScreen, read-out: Assay B location 1 IC50) [nM]	IC50 [2] [nM]	IC50 (location 2, NIK auto-phosphorylation, AlphaScreen, read-out: Assay B location 2 IC50) [nM]
COc1ccc(Cl)c(Nc2nccc(-c3cnc4c(c3)C(C)(CO)CN4)n2)c1 (stereo not drawn) [Compound 222]	2.6	–	–	–
CC1(CO)CNc2ncc(-c3ccnc(Nc4ccccc4C(F)(F)F)n3)cc21 (stereo not drawn) [Compound 180]	204	–	–	–
COc1cc(N2CCN(C)CC2)ccc1Nc1nccc(-c2cnc3c(c2)C(C)(CO)CN3)n1 (stereo not drawn) [Compound 187]	18.2	–	–	–
COc1cc(OC2CCN(C)C2)ccc1Nc1nccc(-c2cnc3c(c2)C(C)(CO)CN3)n1 (stereo not drawn) [Compound 229]	37.2	–	45.7	–
CNC(=O)c1ccc(Nc2nccc(-c3cnc4c(c3)C(C)(CO)CN4)n2)c(OC)c1 (stereo not drawn) [Compound 152]	11.2	–	–	–
CC1(CO)CNc2ncc(-c3ccnc(Nc4cc(F)c(N5CCOCC5)cc4Cl)n3)cc21 (single isomer, unassigned) [Compound 263]	53.7	–	129	–
COc1cc(CO)c(Cl)cc1Nc1nccc(-c2cnc3c(c2)C(C)(CO)CN3)n1 (stereo not drawn) [Compound 332]	1.1	–	–	–
COc1cc(N2CCN(C)CC2)c(F)cc1Nc1nccc(-c2cnc3c(c2)C(C)(CO)CN3)n1 (stereo not drawn) [Compound 271]	2.6	–	10.2	–
COc1cc(OCCN2CCN(C)CC2)c(Cl)cc1Nc1nccc(-c2cnc3c(c2)C(C)(CO)CN3)n1 (stereo not drawn) [Compound 320]	1	–	2.7	–
COc1cc(OCC(=O)N(C)C)c(Cl)cc1Nc1nccc(-c2cnc3c(c2)C(C)(CO)CN3)n1 (stereo not drawn) [Compound 322]	1.7	–	–	–
COc1ccc(-c2cnn(C)c2)cc1Nc1nccc(-c2cnc3c(c2)C(C)(CO)CN3)n1 (stereo not drawn) [Compound 239]	355	–	389	–
COCCN1CC(c2cc(OC)c(Nc3nccc(-c4cnc5c(c4)C(C)(CO)CN5)n3)cc2Cl)C1 (stereo not drawn) [Compound 321]	1.6	–	3.6	–
CN(C)CCOc1cc(N2CCOCC2)c(F)cc1Nc1nccc(-c2cnc3c(c2)C(C)(CO)CN3)n1 (stereo not drawn) [Compound 370]	977	–	1620	–
COc1cc(N2CC(OC)C2)c(F)cc1Nc1nccc(-c2cnc3c(c2)C(C)(CO)CN3)n1 (single isomer, unassigned) [Compound 288]	57.5	–	112	–
COc1cc(C(=O)N2CCC(OC)C2)c(Cl)cc1Nc1nccc(-c2cnc3c(c2)C(C)(CO)CN3)n1 (stereo not drawn) [Compound 290]	1.4	–	3.1	–
CNC(=O)c1ccc(C)c(Nc2nccc(-c3cnc4c(c3)C(C)(CO)CN4)n2)c1 (stereo not drawn) [Compound 219]	61.7	–	–	–
COc1cc(Cl)c(C)c(Nc2nccc(-c3cnc4c(c3)C(C)(CO)CN4)n2)c1 (stereo not drawn) [Compound 230]	6.6	–	7.4	–
CC1(CO)CNc2ncc(-c3ccnc(Nc4ccccc4Br)n3)cc21 (stereo not drawn) [Compound 176]	12.6	–	–	–
